Measured values as given in PMC6193938, “Characterization of a novel AICARFT inhibitor which potently elevates ZMP and has anti-tumor activity in murine models” (Scientific Reports, 2018).

Key:
cell lines of Table 1 = assay: Alamar Blue proliferation assay, average over cell lines; assay type: cell-based; details: Homo sapiens
Procedure: Cells lines were acquired from cell banks, see supplemental material, grown using the cell banks recommended culture conditions (Supplemental Table 3). In some experiments noted “low folate” the cells were washed and grown in folate free RPMI-1640 media (Gibco #27016-021) supplemented with 5 ml 1 M Hepes, 5 ml 100 mM Na pyruvate, 2.5 mg/ml glucose and 10% defined FBS (Hyclone #SH30070) per 500 mL media for 5–7 days to deplete intracellular folate levels prior to the start of the experiment. Where noted, cells were maintained in complete “high folate” RPMI-1640 media (ATCC #30-2001) with 10% defined FBS to contrast with the low folate conditions.
Cells were cultured using recommended culture conditions unless noted otherwise (Supplemental Table 3). Cells were plated, dosed with compound and incubated at 37 °C for approximately 2 doubling times as determined for each cell line. Cell Titer Glo (Promega) assay was used to measure proliferation according to manufacturer’s recommendations by measuring luminescence with Flexstation3 (Molecular Devices) with 500 ms integration time. […]
For a limited number of cell lines, compound dosing was performed under high or low folate conditions with cell viability being determined with Alamar Blue rather than an ATP dependent assay. […] The % inhibition for each sample was calculated and fit as described above.

NCI-H460 xenograft = assay: Antitumor efficacy and tumor metabolites, mouse xenograft, normal folate diet; assay type: in vivo; details: NCI-H460 tumors; after 13 days of treatment; normal chow
[1] = tested on: AMPK T172 phosphorylation in MDA-MB-231met2 tumors; assay: Western analysis of tumors; assay type: in vivo, mouse; details: 30 and 60 mg/kg BIDx22 PO
Procedure: (§1) The levels of total AMPKα and P70S6K are also shown. […] The levels of total AMPKα are also shown. […] Full images and the croppings used in this figure are shown in Supplemental Figures S14–S21.
(§2) Antibodies were purchased as follows: pAMPK Thr172 (Cell Signaling #2535), p-p70S6 Thr389 (Cell Signaling #9205), total p70S6 (Cell Signaling #2708), total AMPKα (Cell Signaling #2793) and Actin (Sigma #A5441). Frozen tumor samples were lysed with 500 µL ice cold lysis buffer plus Halt protease inhibitor (ThermoFisher #78430) using a Power Gen 125 tissue grinder (Fisher Scientific). Western blots were run as described in the supplemental material.
(§3) For the in vivo study with MDA-MB-231met2 (Figure 6A) 40 ug of total protein was resolved on a 10% Tris HCl Criterion XT precast gel (BioRad) at 100 V for 90 minutes. Transfer electrophoresed proteins to a 0.2 µm nitrocellulose membrane using Trans Blot Turbo System (BioRad). Block membranes for 1 hr at RT in 5% skim milk. Probe overnight 4°C for primary antibodies. Blots were washed 3-5 min in 20 mL TBS-0.1% Tween-20. Apply appropriate secondary antibody for 1-3 hours RT. Wash blots 3 x 5 min in 20 mL TBS-0.1% Tween20 and develop signal using Super Signal Western Femto kit (Thermo) on Image Reader LAS-4000 (Fuji Film Life Science).

[2] = tested on: P70S6K T389 phosphorylation in MDA-MB-231met2 tumors; assay: Western analysis of tumors; assay type: in vivo, mouse; details: 30 and 60 mg/kg BIDx22 PO
Procedure: as §1, §2, §3

protein kinase = assay: Panel of protein kinase assays at CEREP Panlabs (Eurofins), overall; assay type: biochemical
AKT1 = molecular target: T1, AKT1 (Homo sapiens, UniProt P31749); assay: CEREP protein kinase assay; assay type: biochemical
T1 construct: purchased CEREP Panlabs (Eurofins)

FAK = molecular target: T2, FAK (Homo sapiens, UniProt Q05397); assay: CEREP protein kinase assay; assay type: biochemical
T2 construct: purchased CEREP Panlabs (Eurofins)

FER = molecular target: T3, FER (Homo sapiens, UniProt P16591); assay: CEREP protein kinase assay; assay type: biochemical
T3 construct: purchased CEREP Panlabs (Eurofins)

FLT4 = molecular target: T4, FLT4 (Homo sapiens, UniProt P35916); assay: CEREP protein kinase assay; assay type: biochemical
T4 construct: purchased CEREP Panlabs (Eurofins)

IRAK4 = molecular target: T5, IRAK4 (Homo sapiens, UniProt Q9NWZ3); assay: CEREP protein kinase assay; assay type: biochemical
T5 construct: purchased CEREP Panlabs (Eurofins)
T5 sequence (Q9NWZ3 1-460): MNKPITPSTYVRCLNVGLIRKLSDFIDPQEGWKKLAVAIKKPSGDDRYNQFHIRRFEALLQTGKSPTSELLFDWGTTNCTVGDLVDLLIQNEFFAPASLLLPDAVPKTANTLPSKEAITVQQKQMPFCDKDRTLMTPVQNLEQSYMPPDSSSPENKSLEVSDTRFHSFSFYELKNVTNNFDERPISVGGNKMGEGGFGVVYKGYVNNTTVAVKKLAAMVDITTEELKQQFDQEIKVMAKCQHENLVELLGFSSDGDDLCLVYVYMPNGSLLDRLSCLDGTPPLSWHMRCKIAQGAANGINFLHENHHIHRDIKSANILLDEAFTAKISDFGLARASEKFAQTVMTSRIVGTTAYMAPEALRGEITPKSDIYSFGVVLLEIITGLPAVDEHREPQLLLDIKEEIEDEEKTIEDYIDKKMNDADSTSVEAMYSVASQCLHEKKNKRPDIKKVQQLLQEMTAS

ROCK1 = molecular target: T6, ROCK1 (Homo sapiens, UniProt Q13464); assay: CEREP protein kinase assay; assay type: biochemical
T6 construct: purchased CEREP Panlabs (Eurofins)

[3] = mouse, in vivo

T1 sequence (P31749 whole entry): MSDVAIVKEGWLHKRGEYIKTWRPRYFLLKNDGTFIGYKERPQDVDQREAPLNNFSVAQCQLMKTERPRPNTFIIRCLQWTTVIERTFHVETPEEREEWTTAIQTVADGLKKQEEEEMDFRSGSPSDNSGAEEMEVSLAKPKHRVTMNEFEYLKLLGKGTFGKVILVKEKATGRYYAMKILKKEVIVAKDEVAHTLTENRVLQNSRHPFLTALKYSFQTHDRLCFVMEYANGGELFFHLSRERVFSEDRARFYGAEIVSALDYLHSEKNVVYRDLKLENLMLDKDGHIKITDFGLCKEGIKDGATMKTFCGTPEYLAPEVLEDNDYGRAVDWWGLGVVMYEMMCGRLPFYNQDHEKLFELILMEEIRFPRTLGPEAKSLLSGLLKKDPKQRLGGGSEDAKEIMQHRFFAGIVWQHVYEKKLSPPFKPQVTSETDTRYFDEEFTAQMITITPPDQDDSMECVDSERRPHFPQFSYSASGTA
T2 sequence (Q05397 whole entry): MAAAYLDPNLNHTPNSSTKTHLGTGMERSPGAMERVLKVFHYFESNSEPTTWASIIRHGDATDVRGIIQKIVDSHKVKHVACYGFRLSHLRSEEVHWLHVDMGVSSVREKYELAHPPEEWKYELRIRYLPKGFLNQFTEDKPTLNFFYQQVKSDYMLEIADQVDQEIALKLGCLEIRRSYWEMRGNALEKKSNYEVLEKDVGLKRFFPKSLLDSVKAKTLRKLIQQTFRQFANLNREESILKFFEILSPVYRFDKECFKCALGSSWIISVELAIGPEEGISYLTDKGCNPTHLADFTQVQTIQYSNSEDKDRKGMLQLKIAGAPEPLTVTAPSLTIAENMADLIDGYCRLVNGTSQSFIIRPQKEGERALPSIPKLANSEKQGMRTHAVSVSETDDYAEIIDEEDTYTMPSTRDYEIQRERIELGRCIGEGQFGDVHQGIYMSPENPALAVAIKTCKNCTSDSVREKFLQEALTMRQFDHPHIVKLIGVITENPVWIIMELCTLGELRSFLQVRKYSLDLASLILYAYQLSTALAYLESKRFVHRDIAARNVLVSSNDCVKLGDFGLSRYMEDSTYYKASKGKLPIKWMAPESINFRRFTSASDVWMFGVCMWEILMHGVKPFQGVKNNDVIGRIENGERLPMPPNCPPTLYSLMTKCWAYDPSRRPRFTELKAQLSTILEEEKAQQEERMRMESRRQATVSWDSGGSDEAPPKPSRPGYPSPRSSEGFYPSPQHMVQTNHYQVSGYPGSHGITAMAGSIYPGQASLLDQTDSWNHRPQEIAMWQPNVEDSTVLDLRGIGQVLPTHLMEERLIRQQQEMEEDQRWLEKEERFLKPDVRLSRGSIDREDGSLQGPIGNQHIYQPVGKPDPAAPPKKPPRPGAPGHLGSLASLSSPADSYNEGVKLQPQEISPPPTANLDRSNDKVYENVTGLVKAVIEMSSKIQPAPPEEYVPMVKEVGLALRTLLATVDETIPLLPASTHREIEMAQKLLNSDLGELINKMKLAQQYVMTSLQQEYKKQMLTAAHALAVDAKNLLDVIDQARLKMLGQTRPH
T4 sequence (P35916 25-1363): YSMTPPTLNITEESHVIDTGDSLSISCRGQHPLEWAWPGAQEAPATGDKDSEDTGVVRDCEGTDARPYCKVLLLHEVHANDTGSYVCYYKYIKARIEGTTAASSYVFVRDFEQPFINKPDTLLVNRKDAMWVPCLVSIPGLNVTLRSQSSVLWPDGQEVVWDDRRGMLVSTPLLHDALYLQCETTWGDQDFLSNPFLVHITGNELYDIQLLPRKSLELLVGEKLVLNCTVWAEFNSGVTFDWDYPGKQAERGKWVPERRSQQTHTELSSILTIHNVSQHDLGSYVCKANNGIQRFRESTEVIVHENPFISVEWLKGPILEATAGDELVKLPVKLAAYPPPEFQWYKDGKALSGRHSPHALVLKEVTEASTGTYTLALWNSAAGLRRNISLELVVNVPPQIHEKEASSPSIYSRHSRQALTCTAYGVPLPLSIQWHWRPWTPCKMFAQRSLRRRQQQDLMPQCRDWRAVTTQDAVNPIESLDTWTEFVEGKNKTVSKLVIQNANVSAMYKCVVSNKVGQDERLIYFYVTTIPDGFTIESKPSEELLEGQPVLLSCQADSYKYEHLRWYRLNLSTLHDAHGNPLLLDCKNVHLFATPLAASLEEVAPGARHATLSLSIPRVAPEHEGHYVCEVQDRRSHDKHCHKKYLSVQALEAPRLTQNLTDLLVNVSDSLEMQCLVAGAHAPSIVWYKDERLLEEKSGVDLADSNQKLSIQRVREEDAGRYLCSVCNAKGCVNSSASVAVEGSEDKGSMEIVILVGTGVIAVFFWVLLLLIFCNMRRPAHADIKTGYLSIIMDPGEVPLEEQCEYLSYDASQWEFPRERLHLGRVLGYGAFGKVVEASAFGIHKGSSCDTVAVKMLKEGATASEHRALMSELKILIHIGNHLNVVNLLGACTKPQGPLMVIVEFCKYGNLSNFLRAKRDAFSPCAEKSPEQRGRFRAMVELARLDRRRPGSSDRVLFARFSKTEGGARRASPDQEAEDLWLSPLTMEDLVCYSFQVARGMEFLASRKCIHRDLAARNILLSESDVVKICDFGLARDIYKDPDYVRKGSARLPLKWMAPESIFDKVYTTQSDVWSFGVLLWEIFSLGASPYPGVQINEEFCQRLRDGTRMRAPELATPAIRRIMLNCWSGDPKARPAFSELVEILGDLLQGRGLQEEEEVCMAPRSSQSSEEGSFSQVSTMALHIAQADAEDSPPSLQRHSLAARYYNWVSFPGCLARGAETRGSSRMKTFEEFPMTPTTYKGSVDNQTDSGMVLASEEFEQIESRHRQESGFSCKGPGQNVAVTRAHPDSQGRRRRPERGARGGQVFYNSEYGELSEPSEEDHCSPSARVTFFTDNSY
T3 sequence (P16591 whole entry): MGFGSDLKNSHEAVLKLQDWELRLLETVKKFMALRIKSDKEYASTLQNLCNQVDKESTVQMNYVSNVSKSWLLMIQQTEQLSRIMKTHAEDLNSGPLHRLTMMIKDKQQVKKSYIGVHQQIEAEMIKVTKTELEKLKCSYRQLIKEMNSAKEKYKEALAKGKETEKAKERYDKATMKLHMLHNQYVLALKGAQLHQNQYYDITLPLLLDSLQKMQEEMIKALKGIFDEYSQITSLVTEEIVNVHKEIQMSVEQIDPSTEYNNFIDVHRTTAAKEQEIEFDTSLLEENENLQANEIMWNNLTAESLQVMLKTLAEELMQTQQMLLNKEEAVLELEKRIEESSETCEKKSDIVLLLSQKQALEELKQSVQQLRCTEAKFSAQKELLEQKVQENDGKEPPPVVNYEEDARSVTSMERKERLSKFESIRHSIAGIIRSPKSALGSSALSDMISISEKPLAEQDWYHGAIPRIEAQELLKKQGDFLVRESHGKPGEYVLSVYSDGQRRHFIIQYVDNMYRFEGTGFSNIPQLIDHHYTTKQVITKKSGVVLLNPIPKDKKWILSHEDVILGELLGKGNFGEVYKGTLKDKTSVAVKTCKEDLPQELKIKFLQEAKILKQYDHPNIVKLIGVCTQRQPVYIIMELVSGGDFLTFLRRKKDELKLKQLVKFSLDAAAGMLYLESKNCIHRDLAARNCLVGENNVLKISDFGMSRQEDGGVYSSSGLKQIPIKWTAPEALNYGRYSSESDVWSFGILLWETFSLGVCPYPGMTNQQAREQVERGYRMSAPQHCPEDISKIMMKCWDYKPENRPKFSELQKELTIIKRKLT
T6 sequence (Q13464 whole entry): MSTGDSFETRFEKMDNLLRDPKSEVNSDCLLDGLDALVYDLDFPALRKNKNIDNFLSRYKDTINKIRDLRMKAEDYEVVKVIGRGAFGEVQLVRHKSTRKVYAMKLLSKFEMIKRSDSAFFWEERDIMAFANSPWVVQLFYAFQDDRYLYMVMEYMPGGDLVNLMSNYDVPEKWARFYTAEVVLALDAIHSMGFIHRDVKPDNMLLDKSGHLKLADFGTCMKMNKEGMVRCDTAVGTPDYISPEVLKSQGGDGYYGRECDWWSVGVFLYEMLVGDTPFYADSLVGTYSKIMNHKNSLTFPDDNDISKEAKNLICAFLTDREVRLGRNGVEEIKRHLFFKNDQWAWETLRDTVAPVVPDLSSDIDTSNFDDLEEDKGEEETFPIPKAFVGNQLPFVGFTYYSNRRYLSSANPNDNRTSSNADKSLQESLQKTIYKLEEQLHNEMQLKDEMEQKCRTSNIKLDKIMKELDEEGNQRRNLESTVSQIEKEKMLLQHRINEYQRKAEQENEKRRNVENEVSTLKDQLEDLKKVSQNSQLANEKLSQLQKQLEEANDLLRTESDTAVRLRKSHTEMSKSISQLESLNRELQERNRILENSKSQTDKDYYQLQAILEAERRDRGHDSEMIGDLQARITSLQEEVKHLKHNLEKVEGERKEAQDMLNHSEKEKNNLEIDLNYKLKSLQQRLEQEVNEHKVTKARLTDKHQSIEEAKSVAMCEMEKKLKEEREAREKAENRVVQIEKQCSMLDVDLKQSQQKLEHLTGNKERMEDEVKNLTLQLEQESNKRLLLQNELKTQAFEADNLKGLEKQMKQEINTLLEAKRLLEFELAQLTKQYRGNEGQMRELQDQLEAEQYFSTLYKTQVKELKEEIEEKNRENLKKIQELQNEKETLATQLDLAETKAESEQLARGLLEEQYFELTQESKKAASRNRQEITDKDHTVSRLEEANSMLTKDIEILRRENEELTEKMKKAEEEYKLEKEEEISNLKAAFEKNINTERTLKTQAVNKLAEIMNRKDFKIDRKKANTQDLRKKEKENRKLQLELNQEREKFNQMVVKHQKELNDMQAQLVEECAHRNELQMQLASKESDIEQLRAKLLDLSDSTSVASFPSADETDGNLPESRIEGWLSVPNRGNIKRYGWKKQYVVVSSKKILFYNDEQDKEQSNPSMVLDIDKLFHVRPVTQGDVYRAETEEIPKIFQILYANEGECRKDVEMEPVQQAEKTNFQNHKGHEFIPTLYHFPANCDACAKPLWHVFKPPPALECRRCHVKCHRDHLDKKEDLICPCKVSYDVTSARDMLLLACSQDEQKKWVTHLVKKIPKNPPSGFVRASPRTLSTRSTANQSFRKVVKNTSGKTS

O=c1[nH]ccc2cc(F)c(NS(=O)(=O)c3ccc(N4CC[C@@H](O)C4)s3)cc12 [LSN3213128, N-(6-Fluoro-1-oxo-1,2-dihydroisoquinolin-7-yl)-5-[(3R)-3-hydroxypyrrolidin-1-yl]thiophene-2-sulfonamide]
GI50 (cell lines of Table 1; low folate, 12 cell lines): 0.0044 ± 0.0045 µM | GI50 (cell lines of Table 1; regular RPMI, 11 cell lines): 2.4 µM | tumor ZMP levels (NCI-H460 xenograft): dramatically elevated | tumor dUMP levels (NCI-H460 xenograft): remained constant | AMPK T172 phosphorylation levels in vivo [1]: remained elevated | P70S6K T389 phosphorylation [2]: showed no change | protein kinase activity, panel (protein kinase): no significant protein kinase activity | inhibition at 0.2 µM (AKT1; @ 0.2 uM): -1.76% | inhibition at 2 µM (AKT1; @ 2 uM): 5.52% | inhibition at 20 µM (AKT1; @ 20 uM): -6.9% | inhibition at 0.2 µM (FAK; @ 0.2 uM): -12.7% | inhibition at 2 µM (FAK; @ 2 uM): -4.84% | inhibition at 20 µM (FAK; @ 20 uM): 40.1% | inhibition at 0.2 µM (FER; @ 0.2 uM): 3.36% | inhibition at 2 µM (FER; @ 2 uM): 18% | inhibition at 20 µM (FER; @ 20 uM): 11.1% | inhibition at 0.2 µM (FLT4; @ 0.2 uM): -9.28% | inhibition at 2 µM (FLT4; @ 2 uM): 6.53% | inhibition at 20 µM (FLT4; @ 20 uM): 70.5% | inhibition at 0.2 µM (IRAK4; @ 0.2 uM): -4.69% | inhibition at 2 µM (IRAK4; @ 2 uM): 0.428% | inhibition at 20 µM (IRAK4; @ 20 uM): -0.827% | inhibition at 0.2 µM (ROCK1; @ 0.2 uM): 7.67% | inhibition at 2 µM (ROCK1; @ 2 uM): 10.9% | inhibition at 20 µM (ROCK1; @ 20 uM): 21.3% | tolerability of efficacy studies [3]: toxicity upon repeated dosing
